Reference: article PMC8151276, “An Integrated Approach toward NanoBRET Tracers for Analysis of GPCR Ligand Engagement” (Molecules, 2021)

What was measured:
Format in all cases: binding
[1] = biological target: T1, GRM3 (Homo sapiens, UniProt Q14832); test: NanoBRET screen HiBiT-GRM3 in HEK293
T1 construct: purchased Promega (in-house HiBiT-GPCR construct library, NanoBRET)
Method: (§1) Each tracer candidate was screened across the entire library of HiBiT-GPCR constructs using NanoBRET as the detection modality. As depicted in Figure 4A, the specificity of interactions was evaluated through decrease in BRET due to competitive displacement of a bound tracer by excess parental compound. Each tracer was analyzed for binding to each HiBiT-GPCR fusion in the absence and in the presence of competing parental compound. Briefly, HEK293 cells were transfected with HiBiT-GPCR constructs diluted into promoterless DNA to reduce expression and maximize translocation to the cell surface. Each tracer candidate was then screened at concentrations of 1 μM and 0.1 μM across cells expressing these fusions. Cells were treated for 1.5 h with tracer either alone or in the presence of 20 μM competing parental compound (i.e., control). BRET was measured upon addition of purified LgBiT and subsequent complementation with HiBiT genetically fused to a GPCR. The specificity of interactions was assessed through a decrease in BRET signal due to competitive displacement of the bound tracer. To further gauge the robustness of these interactions, the fold response over the control (i.e., BRETtracer/BRETcontrol) was calculated. We chose a 1.5-fold response, which translates to ≥7-fold signal over noise as the minimal threshold required to score an interaction as positive. […]. Below we highlight the screening results obtained for our exemplary fluorescent tracers based on Clozapine, Amitriptyline and AZD1283.
(§2) HiBiT-GPCR DNA constructs were diluted in 10 mM Tris pH 8 to a final concentration of 0.01 μg/μL, arrayed in 96-well plates and stored at −20 °C. For transfection, HEK293 cells were suspended in Opti-MEM (without phenol red) supplemented with 2% fetal bovine serum (Seradigm) and 100 units/mL penicillin–streptomycin (Gibco) at a final concentration of 220,000 cells/mL and dispensed into white 96-well plates at 90 μL/well. Subsequent transfections and screens were carried using an Agilent Bravo Automated Liquid Handling Platform. First, the 96-well HiBiT DNA arrays were diluted 25-fold in Opti-MEM (without serum or phenol red) to a final concentration of 0.0004 μg/μL and 20 μL of the diluted DNAs were transferred into new 96-well plates. Next, promoterless carrier DNA (1 μg/μL) was diluted 25-fold (0.04 μg/μL) and then dispensed into the diluted arrays at 20 μL/well. Following brief mixing, Viafect transfection reagent (Promega) diluted 16-fold into Opti-MEM was dispensed into the plates at 40 μL/well. After mixing by pipetting, plates were incubated for 10 min on the pipetting station deck. The DNA-transfection reagent complexes were then added to plates containing cells. To facilitate the screen, 10 μL of DNA-transfection reagent complexes were added in duplicates to the top 4 and bottom 4 rows, resulting in two identical 48-well arrays per plate. Plates with transfected cells were incubated for 18–20 h at 37 °C/5% CO2. A screen of each tracer across the entire library using two different concentrations requires duplicate plates of transfected cells. Depending on the number of tracers being screened, transfections can be scaled up using the same ratios. The next day, for each tracer, four 20× screening solutions in tracer dilution buffer (Promega) were prepared: two duplicates at final concentration of 20 μM and two duplicates at a final concentration of 2 μM. A competing unmodified compound was added to one of each duplicate at a final concentration of 400 μM. The four resulting solutions were diluted 4-fold in Opti-MEM without serum or phenol red to generate 5× solutions (5 µM and 0.5 µM tracer +/− 100 μM competing compound). To screen the library, a BioTek MultiFlo FX liquid dispenser was used to dispense 22.5 µL of tracer solution to the top 4 rows and 22.5 µL tracer + competing compound solution to the 4 bottom rows. Plates were briefly mixed on an orbital shaker and incubated for 1.5 h at room temperature. […]

[2] = biological target: T2, SSTR5 (Homo sapiens, UniProt P35346); test: NanoBRET screen HiBiT-SSTR5 in HEK293
T2 construct: purchased Promega (in-house HiBiT-GPCR construct library, NanoBRET)
Method: as §1, §2

[3] = biological target: T3, C5AR2 (Homo sapiens, UniProt Q9P296); test: NanoBRET screen HiBiT-C5AR2 in HEK293
T3 construct: purchased Promega (in-house HiBiT-GPCR construct library, NanoBRET)
Method: as §1, §2

[4] = biological target: T4, GABBR1 (Homo sapiens, UniProt Q9UBS5); test: NanoBRET screen HiBiT-GABBR1 in HEK293
T4 construct: purchased Promega (in-house HiBiT-GPCR construct library, NanoBRET)
Method: as §1, §2

[5] = biological target: T5, FZD2 (Homo sapiens, UniProt Q14332); test: NanoBRET screen HiBiT-FZD2 in HEK293
T5 construct: purchased Promega (in-house HiBiT-GPCR construct library, NanoBRET)
Method: as §1, §2

[6] = biological target: T6, P2RY10 (Homo sapiens, UniProt O00398); test: NanoBRET screen HiBiT-P2RY10 in HEK293
T6 construct: purchased Promega (in-house HiBiT-GPCR construct library, NanoBRET)
Method: as §1, §2

T4 sequence (Q9UBS5 15-961 limits assumed): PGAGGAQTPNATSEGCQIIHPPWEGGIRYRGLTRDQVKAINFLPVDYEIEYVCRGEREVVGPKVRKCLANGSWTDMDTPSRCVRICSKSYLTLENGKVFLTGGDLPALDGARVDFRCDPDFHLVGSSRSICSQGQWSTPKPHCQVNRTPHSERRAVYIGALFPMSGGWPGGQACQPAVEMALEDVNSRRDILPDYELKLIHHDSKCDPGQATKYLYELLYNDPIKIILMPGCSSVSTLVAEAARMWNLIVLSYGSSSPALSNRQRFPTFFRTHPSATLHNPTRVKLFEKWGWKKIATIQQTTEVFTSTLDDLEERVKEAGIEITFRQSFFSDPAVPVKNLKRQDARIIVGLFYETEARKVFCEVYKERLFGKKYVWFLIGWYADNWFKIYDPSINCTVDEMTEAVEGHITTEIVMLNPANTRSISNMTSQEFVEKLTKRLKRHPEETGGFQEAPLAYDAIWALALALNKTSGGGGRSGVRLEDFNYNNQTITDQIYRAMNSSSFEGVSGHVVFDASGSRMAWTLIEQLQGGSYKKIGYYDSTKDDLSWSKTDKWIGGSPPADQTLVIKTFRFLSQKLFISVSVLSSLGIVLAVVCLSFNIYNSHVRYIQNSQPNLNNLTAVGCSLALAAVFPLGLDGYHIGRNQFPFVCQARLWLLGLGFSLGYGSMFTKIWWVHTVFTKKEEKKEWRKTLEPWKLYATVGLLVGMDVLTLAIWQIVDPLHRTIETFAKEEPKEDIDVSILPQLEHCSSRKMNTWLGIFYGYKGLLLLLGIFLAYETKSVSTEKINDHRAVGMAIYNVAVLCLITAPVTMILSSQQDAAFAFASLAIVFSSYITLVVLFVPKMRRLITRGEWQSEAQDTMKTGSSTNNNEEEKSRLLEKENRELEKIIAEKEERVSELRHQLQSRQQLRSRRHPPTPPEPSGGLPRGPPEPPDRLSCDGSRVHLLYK
T1 sequence (Q14832 23-879): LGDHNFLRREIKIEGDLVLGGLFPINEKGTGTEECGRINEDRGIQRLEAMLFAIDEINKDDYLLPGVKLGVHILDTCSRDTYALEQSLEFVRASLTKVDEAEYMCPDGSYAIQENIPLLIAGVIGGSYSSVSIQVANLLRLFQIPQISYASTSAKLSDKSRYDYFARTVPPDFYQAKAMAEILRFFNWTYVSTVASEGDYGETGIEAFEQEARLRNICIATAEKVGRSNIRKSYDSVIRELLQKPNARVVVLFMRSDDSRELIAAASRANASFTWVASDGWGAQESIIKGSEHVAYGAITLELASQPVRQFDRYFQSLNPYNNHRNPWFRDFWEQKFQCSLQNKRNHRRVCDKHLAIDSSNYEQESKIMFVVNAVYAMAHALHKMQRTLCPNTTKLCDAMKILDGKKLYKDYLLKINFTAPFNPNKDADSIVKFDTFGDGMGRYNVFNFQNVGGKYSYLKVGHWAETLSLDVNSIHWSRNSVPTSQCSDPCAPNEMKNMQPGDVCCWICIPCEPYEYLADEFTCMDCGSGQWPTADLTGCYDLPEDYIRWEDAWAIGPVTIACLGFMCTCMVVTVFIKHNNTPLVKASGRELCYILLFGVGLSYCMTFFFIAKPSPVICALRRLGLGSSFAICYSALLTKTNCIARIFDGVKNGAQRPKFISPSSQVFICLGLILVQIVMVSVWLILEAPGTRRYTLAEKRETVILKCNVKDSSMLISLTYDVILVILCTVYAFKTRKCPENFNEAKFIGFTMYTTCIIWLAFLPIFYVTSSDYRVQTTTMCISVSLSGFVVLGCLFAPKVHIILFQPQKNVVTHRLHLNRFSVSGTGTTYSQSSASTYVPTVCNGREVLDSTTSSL
T2 sequence (P35346 whole entry): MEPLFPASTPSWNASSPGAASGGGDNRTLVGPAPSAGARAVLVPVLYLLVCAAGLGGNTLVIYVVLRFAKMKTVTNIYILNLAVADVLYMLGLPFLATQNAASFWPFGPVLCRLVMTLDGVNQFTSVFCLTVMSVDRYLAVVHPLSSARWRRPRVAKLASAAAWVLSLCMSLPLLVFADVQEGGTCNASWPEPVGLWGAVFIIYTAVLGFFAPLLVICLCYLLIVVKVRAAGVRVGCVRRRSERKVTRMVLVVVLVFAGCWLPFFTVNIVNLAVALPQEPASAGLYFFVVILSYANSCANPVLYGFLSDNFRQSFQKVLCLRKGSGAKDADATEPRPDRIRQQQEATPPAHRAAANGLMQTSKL
T3 sequence (Q9P296 whole entry): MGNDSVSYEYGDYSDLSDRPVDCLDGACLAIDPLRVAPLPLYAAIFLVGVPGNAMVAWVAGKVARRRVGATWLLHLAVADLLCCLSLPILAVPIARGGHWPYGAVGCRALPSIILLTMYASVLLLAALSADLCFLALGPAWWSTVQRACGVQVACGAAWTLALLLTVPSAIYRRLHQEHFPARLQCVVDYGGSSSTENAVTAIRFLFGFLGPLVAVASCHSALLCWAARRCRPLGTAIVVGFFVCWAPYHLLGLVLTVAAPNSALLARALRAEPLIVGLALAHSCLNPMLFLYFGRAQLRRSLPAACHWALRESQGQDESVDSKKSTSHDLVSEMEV
T6 sequence (O00398 whole entry, one chain of several): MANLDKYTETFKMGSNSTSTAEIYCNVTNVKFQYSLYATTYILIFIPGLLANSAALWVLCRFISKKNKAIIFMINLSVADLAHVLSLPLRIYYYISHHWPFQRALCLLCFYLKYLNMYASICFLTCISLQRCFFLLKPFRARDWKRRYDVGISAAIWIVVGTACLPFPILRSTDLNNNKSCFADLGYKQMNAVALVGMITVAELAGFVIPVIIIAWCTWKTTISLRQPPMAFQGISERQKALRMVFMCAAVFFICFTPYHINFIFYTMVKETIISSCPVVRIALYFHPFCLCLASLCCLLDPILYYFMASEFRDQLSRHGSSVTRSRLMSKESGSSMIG
T5 sequence (Q14332 24-565): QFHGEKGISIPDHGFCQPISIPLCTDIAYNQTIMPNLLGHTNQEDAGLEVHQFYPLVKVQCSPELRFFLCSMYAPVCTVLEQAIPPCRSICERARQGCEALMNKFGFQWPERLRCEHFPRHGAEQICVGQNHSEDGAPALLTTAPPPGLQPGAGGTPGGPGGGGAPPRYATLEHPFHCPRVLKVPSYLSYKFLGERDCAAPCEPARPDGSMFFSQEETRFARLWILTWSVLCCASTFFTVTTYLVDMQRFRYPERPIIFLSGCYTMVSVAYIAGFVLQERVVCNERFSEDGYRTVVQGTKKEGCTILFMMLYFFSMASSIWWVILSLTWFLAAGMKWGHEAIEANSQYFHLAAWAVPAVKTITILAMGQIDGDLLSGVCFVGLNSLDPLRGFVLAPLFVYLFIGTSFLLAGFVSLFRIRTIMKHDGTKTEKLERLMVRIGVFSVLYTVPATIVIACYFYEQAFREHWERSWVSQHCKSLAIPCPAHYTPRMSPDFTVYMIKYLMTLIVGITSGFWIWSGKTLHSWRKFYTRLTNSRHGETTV

| Structure (SMILES) | NanoBRET Fold Response ([1]; GRM3, tracer 0.1μM) | NanoBRET Fold Response ([1]; GRM3, tracer 1μM) | NanoBRET Fold Response ([2]; SSTR5, tracer 0.1μM) | NanoBRET Fold Response ([2]; SSTR5, tracer 1μM) | NanoBRET Fold Response ([3]; C5AR2, tracer 0.1μM) | NanoBRET Fold Response ([3]; C5AR2, tracer 1μM) | NanoBRET Fold Response ([4]; GABBR1, tracer 0.1μM) | NanoBRET Fold Response ([4]; GABBR1, tracer 1μM) | NanoBRET Fold Response ([5]; FZD2, tracer 0.1μM) | NanoBRET Fold Response ([5]; FZD2, tracer 1μM) | NanoBRET Fold Response ([6]; P2RY10, tracer 0.1μM) | NanoBRET Fold Response ([6]; P2RY10, tracer 1μM) | other results |
| --- | --- | --- | --- | --- | --- | --- | --- | --- | --- | --- | --- | --- | --- |
| COc1ccc2c(n1)c(CCNC(C)=O)cn2CCNC(=O)CCc1ccc2n1[B-](F)(F)[N+]1=C(c3ccc[nH]3)C=CC1=C2 [Azamelatonin-1-NB590] |  |  |  |  |  |  |  |  |  |  |  |  | NanoBRET Fold Response ([1]; 0.1μM tracer): 0.95; NanoBRET Fold Response ([1]; 1μM tracer): 1.02; NanoBRET Fold Response ([2]; 0.1μM tracer): 0.82; NanoBRET Fold Response ([2]; 1μM tracer): 0.99; NanoBRET Fold Response ([3]; 0.1μM tracer): 0.90; NanoBRET Fold Response ([3]; 1μM tracer): 0.93; NanoBRET Fold Response ([4]; 0.1μM tracer): 1.44; NanoBRET Fold Response ([4]; 1μM tracer): 1.44; NanoBRET Fold Response ([5]; 0.1μM tracer): 0.95; NanoBRET Fold Response ([5]; 1μM tracer): 0.95; NanoBRET Fold Response ([6]; 0.1μM tracer): 0.88; NanoBRET Fold Response ([6]; 1μM tracer): 0.88 |
| CC(C)N(CC[C@H](c1ccccc1)c1cc(CCNC(=O)c2ccc(CNC(=O)CCc3ccc4n3[B-](F)(F)[N+]3=C(c5ccc[nH]5)C=CC3=C4)cc2)ccc1O)C(C)C [Tolterodine-BZ-NB590] | 0.99 | 1.06 | 1.08 | 1.04 | 1.05 | 1.08 | 0.92 | 0.87 | 0.95 | 1.01 | 1.34 | 0.76 |  |
| O=C(CCc1ccc2n1[B-](F)(F)[N+]1=C(c3ccc[nH]3)C=CC1=C2)NCCOCCOCCNC(=O)OCCOCCN1CCN(C2=Nc3ccccc3Sc3ccccc32)CC1 [Quetiapine-a-2-NB590] | 1.08 | 1.09 | 1.03 | 0.83 | 1.04 | 0.77 | 1.22 | 0.93 | 0.96 | 0.89 | 0.94 | 0.95 |  |
| Cc1cc2c(s1)Nc1ccccc1N=C2N1CCN(CCCNC(=O)CCOCCOCCOCCOCCNC(=O)CCc2ccc3n2[B-](F)(F)[N+]2=C(c4ccc[nH]4)C=CC2=C3)CC1 [Olanzapine-a-2-NB590] | 1.02 | 1.02 | 1.01 | 1.02 | 0.95 | 0.97 | 0.94 | 1.20 | 0.98 | 0.90 | 0.99 | 1.15 |  |
| O=C(CCOCCOCCOCCOCCNC(=O)CCc1ccc2n1[B-](F)(F)[N+]1=C(c3ccc[nH]3)C=CC1=C2)NCCCN1CCN(C2=Nc3cc(Cl)ccc3Nc3ccccc32)CC1 [Clozapine-a-2-NB590] |  |  |  |  |  |  |  |  |  |  |  |  | NanoBRET Fold Response ([1]; GRM3, 0.1μM tracer): 0.97; NanoBRET Fold Response ([1]; GRM3, 1μM tracer): 0.96; NanoBRET Fold Response ([2]; SSTR5, 0.1μM tracer): 0.97; NanoBRET Fold Response ([2]; SSTR5, 1μM tracer): 1.00; NanoBRET Fold Response ([3]; C5AR2, 0.1μM tracer): 0.93; NanoBRET Fold Response ([3]; C5AR2, 1μM tracer): 1.21; NanoBRET Fold Response ([4]; GABBR1, 0.1μM tracer): 0.96; NanoBRET Fold Response ([4]; GABBR1, 1μM tracer): 1.33; NanoBRET Fold Response ([5]; FZD2, 0.1μM tracer): 1.04; NanoBRET Fold Response ([5]; FZD2, 1μM tracer): 1.02; NanoBRET Fold Response ([6]; P2RY10, 0.1μM tracer): 1.18; NanoBRET Fold Response ([6]; P2RY10, 1μM tracer): 1.33 |
| CN1CCN(C2=Nc3cc(Cl)ccc3Nc3ccc(CNC(=O)CCOCCOCCOCCOCCNC(=O)CCc4ccc5n4[B-](F)(F)[N+]4=C(c6ccc[nH]6)C=CC4=C5)cc32)CC1 [Clozapine-b-2-NB590] |  |  |  |  |  |  |  |  |  |  |  |  | NanoBRET Fold Response ([1]; GRM3, 0.1μM tracer): 0.99; NanoBRET Fold Response ([2]; SSTR5, 0.1μM tracer): 1.03; NanoBRET Fold Response ([2]; SSTR5, 1μM tracer): 1.00; NanoBRET Fold Response ([3]; C5AR2, 0.1μM tracer): 0.99; NanoBRET Fold Response ([3]; C5AR2, 1μM tracer): 1.01; NanoBRET Fold Response ([4]; GABBR1, 0.1μM tracer): 0.93; NanoBRET Fold Response ([4]; GABBR1, 1μM tracer): 1.38; NanoBRET Fold Response ([5]; FZD2, 0.1μM tracer): 1.01; NanoBRET Fold Response ([5]; FZD2, 1μM tracer): 1.11; NanoBRET Fold Response ([6]; P2RY10, 0.1μM tracer): 0.96; NanoBRET Fold Response ([6]; P2RY10, 1μM tracer): 1.15 |
| Cc1nc2n(c(=O)c1CCN1CCC(c3noc4cc(F)ccc34)CC1)CCCC2OC(=O)NCCOCCOCCOCCOCCNC(=O)CCc1ccc2n1[B-](F)(F)[N+]1=C(c3ccc[nH]3)C=CC1=C2 (centres unmarked) [Risperidone-2-NB590] | 1.07 | 1.07 | 1.01 | 1.02 | 1.06 | 1.07 | 1.09 | 0.87 | 1.01 | 1.03 | 1.14 | 1.14 |  |
